Laboratory results from PMC10820089, “Comparative Studies on the Photoreactivity, Efficacy, and Safety of Depigmenting Agents” (Pharmaceuticals, 2023).
“And” between values parts separate entries of the source, which are not always exact repeats. Equal entries are not always repeated. Where two headings read alike, the source gives them in different places.

Tests used:
[1] = tested on: Tyrosinase from Agaricus bisporus; assay: Tyrosinase inhibition assay (L-tyrosine substrate); assay type: biochemical; settings: for % Inhib (150 µM) of tyrosinase activity: 150 µM compound, n = 3
Procedure: Sodium phosphate monobasic monohydrate was obtained from Fluka (Buchs, Switzerland). Sodium phosphate dibasic anhydrous and methanol were obtained from Carlo Erba Reagents (Val-de-Reuil, France). Imidazole, p-nitroso dimethylaniline (RNO), and nitro blue tetrazolium chloride (NBT) were purchased from Alfa Aesar (Ward Hill, MA, USA).
Tyrosinase inhibition assays were carried out as described in Rosa et al.. Briefly, 25 μL of tyrosinase enzyme solution (135 U/mL), 25 μL of ten serial concentrations of the compounds (dissolved in 0.1 M phosphate buffer pH 6.8 containing no more than 2.5% DMSO, yielding final concentrations of 0.3–150 μM), and 100 μL phosphate buffer were mixed in a 96-well plate and incubated at 37 ± 2 °C for 20 min. Then, 50 μL of 1.66 mM of tyrosine solution in 0.1 M phosphate buffer (pH 6.8) were added. Enzyme activity was measured at 490 nm every 10 min for 30 min in a Bio-Rad Model 680 Microplate Reader (Bio-Rad Laboratories, Inc., Hercules, CA, USA). In cases where the samples were very active at the minimum concentration tested, lower concentration ranges were assayed. […] The experiments were conducted in triplicate. For each concentration, enzyme activity was calculated as a percentage of the velocities compared to those of the assay using buffer without any inhibitor. […] The type of inhibition and inhibition parameters of the compounds, i.e., the Km and Vmax, were determined by Lineweaver–Burk plot analysis using various concentrations of L-tyrosine.

[2] = tested on: B16 mouse melanoma cells; settings: cited from earlier work
[3] = UV-visible spectral analysis, molar extinction coefficient (MEC); assay type: physicochemical; settings: at 290 nm; for Absorbance (10 µg mL^−1): 10 µg mL^−1 in methanol or 20 mM NaPB pH 7.4, 10 mm path length
Source text: The phototoxic potential of chemicals is related to the photochemical properties of compounds, especially light absorption within the range 290–700 nm and the generation of reactive species following absorption of UV-visible light. […] The studied depigmenting agents contain in their molecular structures π systems (some of them conjugated), phenolic and/or hydroxyl, carbonyl, and amine groups. The absorption peaks observed in the UV-visible spectra can be assigned to π-π* and n-π* electronic transitions.
As the wavelength of maximum absorbance obtained for all compounds was below 290 nm, the MEC value for each depigmenting compound was calculated at this wavelength (Table 1).
UV-visible spectral analysis was conducted as previously described. The depigmenting agents were dissolved in methanol or 20 mM sodium phosphate buffer (NaPB, pH 7.4) at 10 μg/mL (final concentration). The UV-visible absorption spectra were analyzed using a Shimadzu UV-1700 spectrophotometer (Shimadzu Corp., Kyoto, Japan) and UV-transparent quartz cuvettes (Hellma, Müllheim, Germany) with a 10 mm path length. Each spectrum was corrected for solvent-specific baseline absorption. Molar extinction coefficients (MEC) were calculated using the highest absorption peaks between 290 and 700 nm at 10 μM.

[4] = ROS assay for photoreactivity (singlet oxygen and superoxide anion generation); assay type: physicochemical; settings: for ROS assay: superoxide anion (O2^•−) / ROS assay: singlet oxygen (^1O2): 200 µM final concentration, mean ± SEM, n = 2; for ROS assay: superoxide anion (O2^•−): cut-off O2^•− ≥ 20 = photoreactive; for ROS assay: singlet oxygen (^1O2): cut-off ^1O2 ≥ 25 = photoreactive; for Photoreactivity classification from ROS assay: photoreactive if SO ≥ 25 and/or SA ≥ 20
Procedure: In addition to light absorption, the generation of reactive species from chemicals following the absorption of UV-visible light is seen as a key determinant for causing direct phototoxic reactions. The ROS assay can be used as an in chemico screening tool for evaluating the photoreactivity of chemicals. […] These depigmenting agents were tested at 200 μM (final concentration) to identify precipitation, coloration, or any other interference in the reaction mixture.
The ROS assay was performed as previously described in Aguiar et al. and the OECD ROS assay for photoreactivity protocol. Stock solutions of all substances were prepared at 10 mM in DMSO or 20 mM sodium phosphate buffer (NaPB, pH 7.4) and used within the same day. SO generation was detected by spectrophotometric measurement of RNO bleaching, followed by a decrease in the absorbance of RNO at 440 nm. SA generation was detected by observing the reduction of NBT to NBT^+, the formation of which can be monitored spectrophotometrically at 560 nm. The depigmenting agents were tested at a final concentration of 200 μM. When precipitation was observable (using a microscope) before light exposure, a lower concentration (20 μM) of the depigmenting agents was tested.
Photoreactivity of the test substances was evaluated according to the result (mean of triplicate determinations) from the ROS assay: a test substance was classified as a photoreactive substance when an SO value of 25 or more and/or an SA value of 20 or more was measured; in turn, it was considered to be a non-photoreactive substance when values of less than 25 for SO and less than 20 for SA were recorded.

[5] = tested on: B-16V melanocytes; assay: Cell viability (PrestoBlue) in B-16V melanocytes; settings: 48 h treatment, 10–1000 µM in water
Procedure: (§1) Given that ABT is a glycosylated derivative of hydroquinone, there is a potential for the release of hydroquinone in vivo.
(§2) B-16V cells (DSMZ ACC-370, Braunschweig, Germany) were cultured in Dulbecco’s Modified Eagle’s Medium (DMEM) containing 3.7 g/L NaHCO3, 1.0 g/L d-glucose, 1 mM sodium pyruvate, and stable glutamine, supplemented with 10% (v/v) heat-inactivated fetal bovine serum (FBS), 50 U/mL penicillin, and 50 μg/mL streptomycin (all reagents from PAN-Biotech GmbH, Aidenbach, Germany). The cells were cultivated at 37 °C in a humidified atmosphere of 95% air and 5% CO2. Subculturing was performed twice a week, when the cells reached 70–80% confluence, through cell trypsinization with 0.25% Trypsin and 1 mM EDTA.4Na (PAN-Biotech GmbH, Aidenbach, Germany).
(§3) To evaluate cell viability, B-16V cells were seeded at a cell density of 3 × 10^4 cells/mL in 96-well plates and allowed to proliferate for 48 h. […] Then, PrestoBlue® reagent (Invitrogen, Waltham, MA, USA) was added to each well. When entering a living cell, the PrestoBlue® reagent is reduced from resazurin to resorufin, whose fluorescence is proportional to the number of metabolically active cells. Fluorescence was measured at an excitation/emission wavelength of 530/590 nm in an automated microplate reader (Synergy HT, Biotek Instruments Inc., Winooski, VT, USA).
(§4) GraphPad Prism 9.5.1 was used to fit non-linear regression to the data and calculate the IC50 values of depigmenting compounds for B-16V cell viability.

[6] = Cell viability (PrestoBlue) in B-16V melanocytes; settings: mouse, B-16V melanocytes, IC50 for B-16V cell viability, 48 h treatment, 0–300 µM in DMSO
Procedure: as §1, §2, §3, §4

[7] = molecular target: tyrosinase; settings: cited from earlier work; for IC50: read-out: IC50 tyrosinase inhibition (literature)

| SMILES | % Inhib (150 µM) of tyrosinase activity [1] | MEC (molar extinction coefficient) [3] | Absorbance (10 µg mL^−1) [3] | ROS assay: superoxide anion (O2^•−) [4] | ROS assay: singlet oxygen (^1O2) [4] | Photoreactivity classification from ROS assay [4] | also measured |
| --- | --- | --- | --- | --- | --- | --- | --- |
| Oc1ccc(O)cc1 [hydroquinone] | – | – | – | – | – | – | Concentration achieving complete growth inhibition [2]: 1250 to 2500 ng/mL; Concentration initiating growth inhibition [2]: 625 ng/mL |
| C=C[C@@](C)(/C=C/c1ccc(O)cc1)CCC=C(C)C [BAK, bakuchiol] | 52.59% | – | 0.2203 | inconclusive | inconclusive | – | Solubility / precipitation in ROS assay reaction mixture ([4]; DMSO or 20 mM NaPB pH 7.4, reaction mixture for SO and SA, 200 µM, lowest concentration 20 µM): showed precipitation in the reaction mixture; IC50 at 48 h [6]: 43.4 ± 0.9 µM; IC50 ([7]; at 1 mM of L-tyrosine): 37.2 ± 5.18 µM |
| NC[C@H]1CC[C@H](C(=O)O)CC1 [TA, tranexamic acid, reference compound] | 13.20% | ε = 380 L mol^−1 cm^−1 | 0.0242 | – | – | – | Effect on B-16V cell viability [5]: did not interfere with cell viability |
| OC[C@H]1O[C@H](Oc2ccc(O)cc2)[C@H](O)[C@@H](O)[C@@H]1O [ABT, α-arbutin] | 27.04% | ε = 2004 L mol^−1 cm^−1 | 0.0736 | 0 ± 0 | 19 ± 1 | cannot be classified as photoreactive | Photoreactivity classification from ROS assay ([4]; listed as α-arbutin): non-photoreactive; Percentage of tyrosinase inhibition (literature) ([7]; at 125 µM): ≈ 30% |

Second part, led by results:

| % Inhib (150 µM) of tyrosinase activity [1] | MEC (molar extinction coefficient) [3] | Absorbance (10 µg mL^−1) [3] | ROS assay: superoxide anion (O2^•−) [4] | ROS assay: singlet oxygen (^1O2) [4] | Photoreactivity classification from ROS assay [4] | SMILES | also measured |
| --- | --- | --- | --- | --- | --- | --- | --- |
| 99.15% | – | – | – | – | – | O=c1cc(CO)occ1O [Kojic acid, kojic acid, reference compound] | – |
| – | ε = 2793 L mol^−1 cm^−1 | 0.1586 | 26 | 671 | – | O=C1O[C@H]([C@@H](O)CO)C(O)=C1O [AA, ascorbic acid, reference compound] | Prevention of chromophore formation in tyrosinase assay ([1]; 150 µM, cannot be interpreted uniquely as tyrosinase inhibition): 58.70%; Effect on B-16V cell viability [5]: did not interfere with cell viability |
| 100% | ε = 3471 L mol^−1 cm^−1 | 0.2088 | 13 ± 1 | 1 ± 0 | non-photoreactive | CCCCc1ccc(O)cc1O [4BR, 4-butylresorcinol] | Type of tyrosinase inhibition (Lineweaver-Burk plot) ([1]; Vmax constant, Km increases with inhibitor concentration): competitive inhibitor; IC50 at 48 h [6]: 97.6 ± 11.6 µM; IC50 [7]: 21 µM and 13.5 µM |
| 11.17% | ε = 1025 L mol^−1 cm^−1 | 0.0303 | 1 ± 0 | 1 ± 1 | non-photoreactive | O=C1O[C@H]([C@@H](O)CO)C(O)=C1O[C@H]1O[C@H](CO)[C@@H](O)[C@H](O)[C@H]1O [AA-2G, ascorbyl glucoside] | – |
